Results: publication PMC11791039, “A split intein and split luciferase-coupled system for detecting protein-protein interactions” (Molecular Systems Biology, 2024)
Several values for one entry are separate records, joined by “and”; a condition that tells them apart may be missing. Equal entries are not always repeated.

Columns and labels:
EGFR(WT)/SHC1 = target: T1, EGFR(WT)/SHC1 (Homo sapiens, UniProt P00533); experiment: SIMPL2 assay EGFR(WT)/SHC1; assay type: cell-based; details: for normalized SIMPL2 signal EGFR/SHC1 (Fig. 3A source data): 16 h, replicates 1-3
T1 construct: β10-IN (tNLuc β10 peptide + GP41-1 split intein N fragment) (C); V5; expressed in transfected cells
T1 sequence (P00533 25-1210): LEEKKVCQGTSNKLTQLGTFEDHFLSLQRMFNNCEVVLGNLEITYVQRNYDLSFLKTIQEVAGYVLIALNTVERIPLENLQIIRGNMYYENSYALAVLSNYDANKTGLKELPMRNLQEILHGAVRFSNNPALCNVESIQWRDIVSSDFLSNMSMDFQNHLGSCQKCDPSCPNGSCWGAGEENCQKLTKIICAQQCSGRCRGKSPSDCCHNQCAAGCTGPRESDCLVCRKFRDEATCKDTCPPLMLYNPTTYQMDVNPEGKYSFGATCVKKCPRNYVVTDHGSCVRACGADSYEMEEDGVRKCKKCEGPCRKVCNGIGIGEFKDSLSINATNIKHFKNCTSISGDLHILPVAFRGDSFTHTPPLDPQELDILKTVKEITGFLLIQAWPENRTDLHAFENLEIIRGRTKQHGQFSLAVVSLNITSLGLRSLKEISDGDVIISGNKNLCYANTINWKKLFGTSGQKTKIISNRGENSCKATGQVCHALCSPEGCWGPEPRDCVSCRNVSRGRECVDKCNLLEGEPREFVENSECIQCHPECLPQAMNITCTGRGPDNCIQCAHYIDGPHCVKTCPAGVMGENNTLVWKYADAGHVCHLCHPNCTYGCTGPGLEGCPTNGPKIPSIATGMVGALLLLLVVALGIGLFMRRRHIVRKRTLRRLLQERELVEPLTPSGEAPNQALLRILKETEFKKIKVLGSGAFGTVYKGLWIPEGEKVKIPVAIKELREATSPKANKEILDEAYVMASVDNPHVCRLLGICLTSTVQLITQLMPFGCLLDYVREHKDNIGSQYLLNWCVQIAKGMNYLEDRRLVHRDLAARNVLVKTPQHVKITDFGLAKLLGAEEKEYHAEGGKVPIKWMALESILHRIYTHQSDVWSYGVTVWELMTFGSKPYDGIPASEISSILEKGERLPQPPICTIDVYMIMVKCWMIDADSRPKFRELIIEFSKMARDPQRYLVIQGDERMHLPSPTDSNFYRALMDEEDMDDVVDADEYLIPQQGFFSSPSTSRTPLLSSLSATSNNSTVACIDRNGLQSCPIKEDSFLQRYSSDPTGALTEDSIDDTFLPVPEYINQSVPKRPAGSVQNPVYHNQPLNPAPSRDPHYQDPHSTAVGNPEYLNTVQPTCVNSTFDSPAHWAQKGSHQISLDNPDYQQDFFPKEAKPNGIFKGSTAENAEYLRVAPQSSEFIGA

HRAS/RBD = target: T2, HRAS/RBD (Homo sapiens, UniProt P01112); experiment: SIMPL2 assay HRAS/RBD; assay type: cell-based; details: 16 h; for normalized SIMPL2 signal HRAS/RBD (Fig. 3A source data): replicates 1-3
T2 construct: IC-β9 (GP41-1 split intein C fragment + tNLuc β9 peptide) (N); FLAG; expressed in transfected cells
T2 sequence (P01112 whole entry, the tested form may be a part): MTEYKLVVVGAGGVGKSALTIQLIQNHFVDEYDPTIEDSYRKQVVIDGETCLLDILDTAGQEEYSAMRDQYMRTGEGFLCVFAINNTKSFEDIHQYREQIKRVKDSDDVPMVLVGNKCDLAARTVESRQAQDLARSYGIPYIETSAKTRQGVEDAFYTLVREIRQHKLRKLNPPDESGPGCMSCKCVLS

normalized SIMPL2 signal EGFR/SHC1 (Fig. 3A source data) (EGFR(WT)/SHC1; AMG510 0.013717 uM): 102.175% and 103.017% and 94.8079% | normalized SIMPL2 signal EGFR/SHC1 (Fig. 3A source data) (EGFR(WT)/SHC1; AMG510 0.041152 uM): 78.9251% and 82.2027% and 70.7463% | normalized SIMPL2 signal EGFR/SHC1 (Fig. 3A source data) (EGFR(WT)/SHC1; AMG510 0.37037 uM): 78.0061% and 80.6558% and 79.5224% | normalized SIMPL2 signal EGFR/SHC1 (Fig. 3A source data) (EGFR(WT)/SHC1; AMG510 1.11111 uM): 94.2258% and 88.5129% and 91.668% | normalized SIMPL2 signal EGFR/SHC1 (Fig. 3A source data) (EGFR(WT)/SHC1; AMG510 3.33333 uM): 78.7566% and 76.4592% and 70.5625% | normalized SIMPL2 signal EGFR/SHC1 (Fig. 3A source data) (EGFR(WT)/SHC1; AMG510 10 uM): 53.0256% and 58.9069% and 63.3333% | inhibition of EGFR/SHC1 signal at high sotorasib concentrations (reviewer's reading of Fig. 3A) (EGFR(WT)/SHC1; peer review file, authors confirm for EGFR/SHC1 only): 40-50% | normalized SIMPL2 signal HRAS/RBD (Fig. 3A source data) (HRAS/RBD; AMG510 0.013717 uM): 95.6644% and 96.1454% and 108.19% | normalized SIMPL2 signal HRAS/RBD (Fig. 3A source data) (HRAS/RBD; AMG510 0.041152 uM): 82.7154% and 124.68% and 97.6847% | normalized SIMPL2 signal HRAS/RBD (Fig. 3A source data) (HRAS/RBD; AMG510 0.37037 uM): 80.291% and 76.1158% and 82.6769% | normalized SIMPL2 signal HRAS/RBD (Fig. 3A source data) (HRAS/RBD; AMG510 1.11111 uM): 79.0981% and 97.1459% and 96.2801% | normalized SIMPL2 signal HRAS/RBD (Fig. 3A source data) (HRAS/RBD; AMG510 3.33333 uM): 91.6238% and 112.808% and 96.8766% | normalized SIMPL2 signal HRAS/RBD (Fig. 3A source data) (HRAS/RBD; AMG510 10 uM): 106.247% and 100.629% and 127.854% | inhibition of HRAS/RBD interaction signal (HRAS/RBD; control cells): no significant inhibition
Compound: C=CC(=O)N1CCN(c2nc(=O)n(-c3c(C)ccnc3C(C)C)c3nc(-c4c(O)cccc4F)c(F)cc23)[C@@H](C)C1 [sotorasib, Sotorasib]
